Experimental data: patent US10087142B2, “Azetidine derivatives useful as modulators of cortical cathecolaminergic neurotransmission” (Integrative Research Laboratories Sweden AB, priority 2015, dated 2018)

Columns and labels:
[1] = tested on: non-pre-treated Sprague-Dawley rats; test: Locomotor activity in drug-naïve rats (behaviour test); type: in vivo, rat; settings: recorded 60 minutes, n = 5
Experimental: The effect of compounds in the present disclosure on locomotor activity in drug-naïve rats was also investigated. The animals were placed in the motility meters immediately after drug administration and locomotor activity was recorded for 60 minutes (counts/60 min±SEM). The results are presented as percent of control.
Behavioural activity was measured using eight Digiscan activity monitors (RXYZM (16) TAO, Omnitech Electronics, Columbus, Ohio, USA), connected to an Omnitech Digiscan analyzer and an Apple Macintosh computer equipped with a digital interface board (NB DIO-24, National Instruments, USA). Each activity monitor consisted of a quadratic metal frame (W×L=40 cm×40 cm) equipped with photo beam sensors. During measurements of behavioural activity, a rat was put in a transparent acrylic cage (W×L×H, 40×40×30 cm) which in turn was placed in the activity monitor. Each activity monitor was equipped with three rows of infrared photo beam sensors, each row consisting of 16 sensors. Two rows were placed along the front and the side of the floor of the cage, at a 90° angle, and the third row was placed 10 cm above the floor to measure vertical activity. Photo beam sensors were spaced 2.5 cm apart. Each activity monitor was fitted in an identical sound and light attenuating box containing a weak house light and a fan.
The computer software was written using object oriented programming (LabVIEW™, National instruments, Austin, Tex., USA).
Behavioural data from each activity monitor, representing the position (horizontal center of gravity and vertical activity) of the animal at each time, were recorded at a sampling frequency of 25 Hz and collected using a custom written LABView™ application. The data from each recording session were stored and analyzed with respect to distance traveled. Each behavioural recording session lasted 60 min, starting approximately 5 min after the injection of test compound.
Compounds disclosed herein have been tested for effects on spontaneous locomotor activity in non-pre-treated Sprague-Dawley rats (based on accumulated distance traveled 0-60 min post dosing), and with doses up to 33 μmol/kg (s.c.).

Arc mRNA = test: m-RNA analysis: Arc mRNA tissue levels in brain regions; type: in vivo, rat; settings: 33 μmol/kg s.c., rats, 65 min before sacrifice, n = 5; for Arc frontal cortex ± SEM: frontal cortex tissue; for Arc striatum ± SEM: striatum tissue
Experimental: Sesack et al. (Anatom Substr Glut-Dopamine Inter. Annals of NY AcadSci, 2003, 1003; 36-52) discloses that the dopaminergic systems of the brain interact strongly with central glutamate neurotransmission. To investigate potential effects of compounds as disclosed herein on cortical and striatal NMDA type glutamate receptor related synaptic signaling, Arc mRNA induction was assessed upon acute administration. Arc (Arc/Arg3.1-activity regulated cytoskeleton-associated protein/activity-regulated gene 3.1; (Link W et al., Proc Natl Acad Sci, USA, 1995, 92; 5734-8 and Lyford G L et al., Neuron, 1995, 14; 433-45), is an immediate early gene (IEG), induced by synaptic activity, whose expression and localization at synaptic sites is triggered specifically by NMDA receptor activation and strongly related to neural plasticity (Steward and Worley, Neuron, 2001, 30; 227-40, Kawashima et al., PNAS, 2009, 106(1); 316-21 and Bramham et al., Exp Brain Res, 2010, 200; 125-40).
[…] were dissected into […] different areas: Limbic system (containing nucleus accumbens, most parts of the olfactory tubercle, ventral pallidum), striatum, frontal cortex, hippocampus and the remaining cortex.
Total RNA was prepared by the guanidin isothiocyanate method (Chomczynski P and Sacchi N, Anal Biochem, 1987, 162(1); 156-9). RNA pellets were solved in RNAse-free water and stored at −80° C. The sample concentration was determined spectrophotometrically by a NanoDrop ND1000 (Saveen Werner). A quality indicator number and an integrity number of r-RNA were measured with an Experion (Bio-rad).
A two-step reversed transcription was performed by using a SuperScript III kit (Invitrogen). 1 μg of total RNA was reverse transcribed with 5 μl 2×RT Reaction Mix, 1 μl RT Enzyme Mix, in a total volume adjusted to 10 μl with DEPC-treated water. 1 U of E. coli RNase H was added. c-DNA was diluted 40 times and stored at −20° C.
Three sequences (one gene of interest and two reference genes) were amplified together in a triplex PCR-reaction. For real-time PCR measurements: 5 μl of c-DNA reaction was amplified in a 20 μl reaction mixture containing 10 μl PerfeCta Multiplex qPCR Supermix (Quanta, VWR), 3.5 μl RNAse-free water, 0.15 μM of each primer and 0.1 μM of each probe. Real-time PCR was measured on CFX96 (Bio-rad) using the following settings for all genes: 3 min pre-incubation at 95° C. followed by 40 cycles of denaturation at 95° C. for 15 s, annealing and elongation at 60° C. for 1 minute.
Reference genes are HPRT and cyclophilin.
The primer and probe sequences are as follows for measuring of arc:
Correct PCR products are confirmed by agarose gel electrophoresis (2%) PCR products are purified with PCR purification kit from Qiagen (Valencia, Calif., USA). All genes are sequenced at MWG, Germany. […]

Cl.Fc1cccc(C(F)C2CNC2)c1F (single isomer, unassigned; (-)) [Example 1, (−)-3-[(2,3-Difluorophenyl)(Fluoro)Methyl]Azetidine Hydrochloric Acid Salt]
locomotor activity, percent of control means ([1]; 11 μmol/kg s.c.): 61%
locomotor activity, percent of control means ([1]; 33 μmol/kg s.c.): 91%
Arc frontal cortex ± SEM (Arc mRNA): 169 ± 8% of control means
Arc striatum ± SEM (Arc mRNA): 133 ± 9% of control means

Fc1cc(F)cc(C(F)C2CNC2)c1.O=C(O)/C=C/C(=O)O (single isomer, unassigned; (-)) [Example 3, (−)-3-[(3,5-Difluorophenyl)(Fluoro)Methyl]Azetidine Fumarate Salt]
locomotor activity, percent of control means ([1]; 11 μmol/kg s.c.): 68%
locomotor activity, percent of control means ([1]; 33 μmol/kg s.c.): 46%
Arc frontal cortex ± SEM (Arc mRNA): 137 ± 6% of control means
Arc striatum ± SEM (Arc mRNA): 90 ± 7% of control means
